# Measurements as given in ChEMBL document CHEMBL5661943, “ASAP - In vitro antiviral effect” (2024).
# Several values for one entry are separate records, joined by “and”; a condition that tells them apart may be missing. Identical values can stand only once.
# Assays:
# [1] = tested on: Zika virus; assay: EC50 is reported via analysis of immunofluorescence staining. The assay has been performed by Icahn School of Medicine at Mount Sinai.; format: functional, organism-based, Chlorocebus sabaeus, VeroE6/TMPRSS2; conditions: Baseline response 0 %, P-gp concentration 2 uM, P-gp inhibitor Elacidar
# [2] = tested on: dengue virus type 2; assay: (§1) Functional immunofluorescence assay to measure dose dependent changes in antiviral-drug inhibitory efficacy against Dengue virus type 2 Thailand/16681/84 in Vero E6/TMPRSS2 cells (cotreated with P-gp inhibitor, Elacridar). Cells are treated with antiviral candidates that are serially diluted, following infection, cells are fixed. EC50 is reported via analysis of immunofluorescence staining. The assay has been performed by Icahn School of Medicine at Mount Sinai.; format: organism-based, Chlorocebus sabaeus, VeroE6/TMPRSS2
# [3] = tested on: Zika virus; assay: (§2) Functional CPE-based assay to measure dose dependent changes in antiviral-drug inhibitory efficacy against Zika virus MR766 in Vero E6 miRFP670 cells. Cells are treated with antiviral candidates that are serially diluted. EC50 is reported via analysis of MTS assay as a readout of CPE. The assay has been performed by KU Leuven.; format: organism-based, Chlorocebus sabaeus, Vero C1008; conditions: Maximum response 100 %
# [4] = tested on: Zika virus; assay: as §1, with “Zika” for “Dengue”, “PRVABC59” for “type 2 Thailand/16681/84”, “cells.” for “cells (cotreated with P-gp inhibitor, Elacridar).”; format: organism-based, Chlorocebus sabaeus
# [5] = tested on: dengue virus type 2; assay: as §1, with “cells.” for “cells (cotreated with P-gp inhibitor, Elacridar).”; format: organism-based, Chlorocebus sabaeus
# [6] = tested on: Zika virus; assay: as §2, with “cells (cotreated with P-gp inhibitor, CP100356).” for “cells.”; format: organism-based, Chlorocebus sabaeus, Vero C1008; conditions: Baseline response 0 %, Maximum response 100 %, P-gp inhibitor CP100356
# [7] = tested on: dengue virus type 2; assay: Functional assay to measure dose dependent changes in antiviral-drug inhibitory efficacy against Dengue virus type 2 New Guinea C in Vero E6 miRFP670 cells (cotreated with P-gp inhibitor, CP100356). Cells are treated with antiviral candidates that are serially diluted, following infection, cells are fixed. EC50 is reported via analysis of fluorescence intensity using high-content imager. The …; format: organism-based, Chlorocebus sabaeus, Vero C1008; conditions: Baseline response 0 %, P-gp concentration 500 nM, P-gp inhibitor CP100356
smiles,measurement,setting,value
C[C@@]1(O)[C@H](O)[C@@H](CO)O[C@H]1n1ccc2c(N)ncnc21 [BETA-2'-C-METHYL-7-DEAZA-ADENOSINE],EC90,"[1]; EC90 CI (lower) 0.301 uM, EC90 CI (upper) 7.202 uM, Hill slope -3.742, Maximum measured 131.957 %, Maximum response 100 %, Minimum measured 2.652 %, R squared 0.767",4.77 µM
same,EC90,"[1]; Hill slope -0.425, Maximum measured 98.697 %, Maximum response 100 %, Minimum measured 17.927 %, R squared 0.629",> 10 µM
same,EC90,"[1]; Hill slope -1.446, Maximum measured 54.457 %, Maximum response 40 %, Minimum measured 5.333 %, R squared 0.69",> 10 µM
same,EC90,"[1]; Hill slope -2.191, Maximum measured 87.134 %, Maximum response 60 %, Minimum measured 12.691 %, R squared 0.704",> 10 µM
same,EC90,"[2]; Baseline response 0 %, Hill slope -0.711, Maximum measured 113.708 %, Maximum response 100 %, Minimum measured 27.128 %, P-gp concentration 2 uM, R squared 0.834, P-gp inhibitor Elacidar",> 10 µM
same,EC90,"[2]; Dengue virus, VeroE6/TMPRSS2",> 10 µM
same,EC50,[2]; veroe6/tmprss2,8.6 µM and 2.59 µM
same,EC90,"[3]; Baseline response 0 %, EC90 CI (lower) 15.507 uM, EC90 CI (upper) 28.219 uM, Hill slope 1.884, Maximum measured 104.267 %, Minimum measured 0.699 %, R squared 0.993",20.9 µM
same,EC90,"[3]; Zika virus, Vero C1008, Baseline response 0 %, Hill slope 0.758, Maximum measured 14.246 %, Minimum measured -0.672 %, R squared 0.091",> 50 µM
same,EC90,"[3]; Zika virus, Vero C1008, Baseline response 0 %, Hill slope 2.277, Maximum measured 74.443 %, Minimum measured -3.247 %, R squared 0.993",> 50 µM
same,EC90,"[3]; Zika virus, Vero C1008, Baseline response 0 %, EC90 CI (lower) 6.665 uM, EC90 CI (upper) 20.693 uM, Hill slope 1.418, Maximum measured 92.41 %, Minimum measured 5.185 %, R squared 0.921",11.7 µM
same,EC50,[4]; VeroE6/TMPRSS2,> 10 µM
same,EC90,"[4]; VeroE6/TMPRSS2, Baseline response 0 %, Hill slope -0.033, Maximum measured 93.578 %, Maximum response 100 %, Minimum measured 41.57 %, R squared 0.011",> 10 µM
same,EC50,[5]; VeroE6/TMPRSS2,0.045 µM
same,EC90,"[5]; VeroE6/TMPRSS2, Baseline response 43.084 %, EC90 CI (lower) 0 uM, EC90 CI (upper) 0 uM, Hill slope -11.259, Maximum measured 119.711 %, Maximum response 115.226 %, Minimum measured 27.831 %, R squared 0.402",0.055 µM
same,EC90,"[6]; EC90 CI (lower) 1.33 uM, EC90 CI (upper) 21.491 uM, Hill slope 2.016, Maximum measured 119.759 %, Minimum measured 49.499 %, P-gp concentration 500 nM, R squared 0.708",5.34 µM
same,EC90,"[6]; EC90 CI (lower) 2.362 uM, EC90 CI (upper) 73.078 uM, Hill slope 2.992, Maximum measured 157.756 %, Minimum measured 1.417 %, P-gp concentration 500 nM, R squared 0.838",13.1 µM
same,EC90,"[6]; EC90 CI (lower) 3.073 uM, EC90 CI (upper) 52.816 uM, Hill slope 2.304, Maximum measured 128.398 %, Minimum measured 15.752 %, P-gp concentration 500 nM, R squared 0.861",12.7 µM
same,EC90,"[6]; EC90 CI (lower) 6.142 uM, EC90 CI (upper) 39.815 uM, Hill slope 2.116, Maximum measured 119.257 %, Minimum measured 3.222 %, P-gp concentration 500 nM, R squared 0.943",15.6 µM
same,EC90,"[6]; EC90 CI (lower) 6.409 uM, EC90 CI (upper) 24.739 uM, Hill slope 3.129, Maximum measured 131.405 %, Minimum measured -2.605 %, P-gp concentration 500 nM, R squared 0.913",12.6 µM
same,EC90,"[6]; EC90 CI (lower) 8.9 uM, EC90 CI (upper) 38.162 uM, Hill slope 2.016, Maximum measured 114.801 %, Minimum measured 5.397 %, P-gp concentration 500 nM, R squared 0.961",18.4 µM
same,EC90,"[6]; EC90 CI (lower) 10.323 uM, EC90 CI (upper) 42.716 uM, Hill slope 1.659, Maximum measured 113.143 %, Minimum measured 4.385 %, P-gp concentration 100 nM, R squared 0.967",21 µM
same,EC90,"[6]; EC90 CI (lower) 14.003 uM, EC90 CI (upper) 30.102 uM, Hill slope 3.316, Maximum measured 112.736 %, Minimum measured -6.737 %, P-gp concentration 500 nM, R squared 0.984",20.5 µM
same,EC90,"[6]; EC90 CI (lower) 17.062 uM, EC90 CI (upper) 43.343 uM, Hill slope 2.491, Maximum measured 123.53 %, Minimum measured -2.699 %, P-gp concentration 500 nM, R squared 0.955",27.2 µM
same,EC90,"[6]; EC90 CI (lower) 18.425 uM, EC90 CI (upper) 28.103 uM, Hill slope 2.492, Maximum measured 115.262 %, Minimum measured 4.379 %, P-gp concentration 500 nM, R squared 0.954",22.8 µM
same,EC90,"[6]; EC90 CI (lower) 23.748 uM, EC90 CI (upper) 39.727 uM, Hill slope 2.255, Maximum measured 100.144 %, Minimum measured -8.11 %, P-gp concentration 500 nM, R squared 0.982",30.7 µM
same,EC90,"[6]; EC90 CI (lower) 28.979 uM, EC90 CI (upper) 80.3 uM, Hill slope 3.379, Maximum measured 85.565 %, Minimum measured -8.762 %, P-gp concentration 500 nM, R squared 0.96",48.2 µM
same,EC90,"[6]; Hill slope 1.338, Maximum measured 86.023 %, Minimum measured -1.473 %, P-gp concentration 500 nM, R squared 0.993",> 50 µM
same,EC90,"[7]; EC90 CI (lower) 3.48 uM, EC90 CI (upper) 7.993 uM, Hill slope -1.843, Maximum measured 93.524 %, Maximum response 100 %, Minimum measured 0.518 %, R squared 0.959",57.2 µM
same,EC90,"[7]; EC90 CI (lower) 4.11 uM, EC90 CI (upper) 8.283 uM, Hill slope -1.641, Maximum measured 89.89 %, Maximum response 100 %, Minimum measured 0.257 %, R squared 0.971",84.9 µM
same,EC90,"[7]; EC90 CI (lower) 6.077 uM, EC90 CI (upper) 11.974 uM, Hill slope -2.703, Maximum measured 104.698 %, Maximum response 100 %, Minimum measured 1.385 %, R squared 0.989",43.4 µM
same,EC90,"[7]; EC90 CI (lower) 9.48 uM, EC90 CI (upper) 152.006 uM, Hill slope -3.766, Maximum measured 162.932 %, Maximum response 100 %, Minimum measured 1.715 %, R squared 0.543",122 µM
same,EC90,"[7]; EC90 CI (lower) 10.134 uM, EC90 CI (upper) 21.901 uM, Hill slope -2.086, Maximum measured 107.044 %, Maximum response 100 %, Minimum measured 0.795 %, R squared 0.961",122 µM
same,EC90,"[7]; EC90 CI (lower) 13.312 uM, EC90 CI (upper) 68.915 uM, Hill slope -3.556, Maximum measured 71.93 %, Maximum response 65.616 %, Minimum measured 1.236 %, R squared 0.774",104 µM
same,EC90,"[7]; EC90 CI (lower) 21.742 uM, EC90 CI (upper) 34.481 uM, Hill slope -3.397, Maximum measured 108.212 %, Maximum response 100 %, Minimum measured 0.235 %, R squared 0.983",99.8 µM
